How the values were obtained:
A549 = test: Cytotoxicity against human A549 cells by MTT assay; format: functional, cell-based
Bel-7402 = test: Cytotoxicity against human BEL-7402 cells by MTT assay; format: functional, cell-based
[1] = Cytotoxicity against human SF763 cells by MTT assay; format: functional, cell-based
B16 [2] = test: Cytotoxicity against mouse B16 cells by MTT assay; format: functional, cell-based
C6 = test: Cytotoxicity against […] by MTT assay
H22 [3] = test: Antitumor activity in H22 cells xenografted ICR mouse assessed as tumor growth inhibition at 30 mg/kg, iv after 4 days; conditions: 96 h, read-out: Inhibition
H22 [4] = test: Antitumor activity in H22 cells xenografted ICR mouse assessed as tumor weight at 20 mg/kg, ip after 4 days; format: functional; conditions: route intraperitoneal
H22 [5] = test: Antitumor activity in H22 cells xenografted ICR mouse assessed as tumor growth inhibition at 20 mg/kg, ip after 4 days; format: functional; conditions: 96 h, route intraperitoneal
B16 [6] = test: Antitumor activity in B16 cells xenografted ICR mouse assessed as tumor weight at 20 mg/kg, ip after 11 days; format: functional; conditions: route intraperitoneal
B16 [7] = test: Antitumor activity in B16 cells xenografted ICR mouse assessed as tumor growth inhibition at 20 mg/kg, ip after 11 days; format: functional; conditions: 264 h, route intraperitoneal
B16 [8] = test: Antitumor activity in B16 cells xenografted ICR mouse assessed as tumor weight at 25 mg/kg, iv after 11 days; format: functional
B16 [9] = test: Antitumor activity in B16 cells xenografted ICR mouse assessed as tumor growth inhibition at 25 mg/kg, iv after 11 days; format: functional; conditions: B16, 264 h

Row | Compound | IC50 (A549) [µM] | IC50 (Bel-7402) [µM] | IC50 [1] [µM] | IC50 (B16 [2]) [µM] | IC50 (C6) [µM] | inhibition in vivo at 30 mg/kg (H22 [3]) [%] | Activity (H22 [4]) [g] | inhibition in vivo at 20 mg/kg (H22 [5]) [%] | Activity (B16 [6]) [g] | inhibition in vivo at 20 mg/kg (B16 [7]) [%] | Activity (B16 [8]) [g] | inhibition in vivo at 25 mg/kg (B16 [9]) [%]
1 | C=C(C)[C@@H]1CC[C@]2(C(=O)OCC#CC)CC[C@]3(C)[C@H](CC[C@@H]4[C@@]5(C)CC[C@H](O)[C@@](C)(CO)[C@@H]5CC[C@]43C)[C@@H]12 | 81.1 | 53 | 64.3 | 63.1 | 75.9 | – | – | – | – | – | – | –
2 | O=P1(N(CCCl)CCCl)NCCCO1 (configuration not stated) [CYCLOPHOSPHAMIDE ANHYDROUS] | – | – | – | – | – | 56.3 | – | – | – | – | – | –
3 | C=C(C)[C@@H]1CC[C@]2(C(=O)O)CC[C@]3(C)[C@H](CC[C@@H]4[C@@]5(C)CC[C@H](O)C(C)(C)[C@@H]5CC[C@]43C)[C@@H]12 [BETULINIC ACID] | 97.5 | 43.4 | 92.1 | 53.5 | 90.7 | – | – | – | – | – | – | –
4 | C=C(C)[C@@H]1CC[C@]2(C(=O)O)CC[C@]3(C)[C@H](CC[C@@H]4[C@@]5(C)CC[C@H](O)[C@@](C)(CO)[C@@H]5CC[C@]43C)[C@@H]12 | 87.6 | 97.3 | 105 | 83 | 99.5 | – | 1.42 | 10.1 | 1.76 | 13.3 | – | –
5 | O=c1[nH]cc(F)c(=O)[nH]1 [FLUOROURACIL] | – | – | – | – | – | – | – | – | – | – | 0.56 | 72.4
